Measured values published in patent publication US20080108067A1, “Cloning of the retinoic acid inducible gene-1 promoter and uses thereof” (priority 2004, published 2008).

Test system: human RIG-1 promoter (RIG-PROM-LUC reporter)
Assay: RIG-PROM-LUC luciferase reporter activity in response to inducers in transfected human cells
Type: cell-based

## CC1=C(/C=C/C(C)=C/C=C/C(C)=C/C(=O)O)C(C)(C)CCC1 [retinoic acid, all Trans-retinoic acid]
FM516 and HeLa cells, IFN-β induction greater than PolyIC:PolyIC and least with retinoic acid, FIG. 2
  activation of promoter activity (RIG-PROM-LUC): robust activation
Depending on the cell line (FM516, T47D, HeLa, PHFA), inducer 6 h then overnight incubation
  response of reporter compared to untreated controls: around 1.5 fold
